Assays:
HSMM = assay: cAMP levels in human skeletal muscle myoblasts; type: cell-based; settings: 1 mM IBMX, 30 minutes
Procedure: HSMM were obtained from Cambrex (Walkersville, Md.) and were cultured according to the suppliers instructions. […] For the cAMP measurements, cells were preincubated 12 h in Opti-MEM (Life Technologies, Cergy Pontoise, France), supplemented with 1 mM IBMX. Then medium was changed and cells were incubated for another 1 h in Opti-MEM with 1 mM IBMX, after which the medium was replaced for Opti-MEM with 1 mM IBMX and the indicated compounds. After 30 minutes the cells were lysed for cAMP analysis.
Nonesterified fatty acids, triglycerides, ketone bodies, BA and total cholesterol were determined by enzymatic assays (Roche, Mannheim, Germany). cAMP was measured using the cAMP-Screen system (Applied Biosystems, Bedford, Mass.).

TGR5 = molecular target: T1, TGR5 (Homo sapiens, UniProt Q8TDU6); assay: cAMP response element (CRE)-luciferase reporter assay with TGR5; type: cell-based; settings: cells co-transfected with TGR5 expression plasmid and CRE-driven luciferase reporter
T1 construct: expressed in transfected cells
T1 sequence (Q8TDU6 1-330): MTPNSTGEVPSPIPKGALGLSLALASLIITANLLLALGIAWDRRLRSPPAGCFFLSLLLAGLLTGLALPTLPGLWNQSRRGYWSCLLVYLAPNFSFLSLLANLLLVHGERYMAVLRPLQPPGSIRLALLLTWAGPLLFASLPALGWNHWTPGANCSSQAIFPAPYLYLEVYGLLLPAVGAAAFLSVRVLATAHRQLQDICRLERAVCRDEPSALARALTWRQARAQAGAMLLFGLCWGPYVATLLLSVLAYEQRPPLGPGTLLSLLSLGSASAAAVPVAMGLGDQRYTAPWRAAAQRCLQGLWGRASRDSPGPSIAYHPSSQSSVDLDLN
From the text: Since a synthetic FXRα agonist was unable to phenocopy the effects of BAs on energy expenditure, we focused our attention on FXRα-independent signaling events stimulated by BAs. […] We used a cAMP response element (CRE)-luciferase reporter assay to confirm that TGR5 is a BA receptor.
We used quantitative RT-PCR to measure the expression of D2 and TGR5 mRNAs in selected mouse tissues.

KK-Ay mice = assay: CA or GW4064 treatment of KK-Ay mice, serum lipids; type: in vivo, mouse; settings: KK-Ay mice; for lowered circulating TG levels / total plasma cholesterol decreased: 1 week
Procedure: Male C57BL/6J, KK-Ay, and ob/ob (C57BL/6J background) mice, 6-10 weeks of age, were obtained from Elevage Janvier (Le Genest St. Isle, France), CLEA Japan Inc. (Tokyo, Japan), and The Jackson Laboratory (Bar Harbor, Me., USA), respectively. All mice were maintained in a temperature-controlled (23° C.) facility with a 12-hour light/dark cycle and were given free access to food and water. The study protocols were approved by the institutional review boards. The body weight and food intake were measured every second day. The control and high-fat diet was obtained from UAR (Villemoisson sur Orge, France). […] The mice were fasted 4 hours before harvesting blood for subsequent lipid measurements, and tissues for RNA isolation, lipid measurements, and histology.
For measurement of liver TGs and cholesterol content, a liver was homogenized in chloroform/methanol (2:1 v/v) using a Polytron tissue grinder (Kinematica AG, Luzern, Switzerland). Lipid extracts were prepared by the classical Folch method. Extracts were dried under N2 flow and resuspended in isopropanol.

[1] = CA feeding, HPLC of lipoproteins

**Q.** What does the source list for C[C@H](CCC(=O)O)[C@H]1CC[C@H]2[C@@H]3[C@H](O)C[C@@H]4C[C@H](O)CC[C@]4(C)[C@H]3C[C@H](O)[C@]12C [CA, cholic acid]?
**A.** cAMP levels (HSMM): increased cAMP levels in a dose-dependant fashion; luciferase expression (TGR5): increased luciferase expression in a dose-dependent manner; HDL cholesterol (KK-Ay mice; [1]): decreasing HDL cholesterol; VLDL TGs (KK-Ay mice; [1]): decreasing VLDL TGs; plasma FFAs (KK-Ay mice; CA feeding, particularly on high-fat diet): decreased plasma FFAs; lowered circulating TG levels (KK-Ay mice; high-fat diet with 0.5% CA): 65%; total plasma cholesterol decreased (KK-Ay mice; high-fat diet with 0.5% CA): 35%; lowered circulating TG levels (KK-Ay mice; normal-chow diet with 0.5% CA): 51%; total plasma cholesterol decreased (KK-Ay mice; normal-chow diet with 0.5% CA): 24%
